Literature values in patent US7195789B2, “Non-fiber extract of psyllium with anti-tumorigenic effects and method for identifying the same” (Board of Trustees of Michigan State University, priority 2002, dated 2007).

What was measured:
ras protein (p21^ras) = conditions: Na et al. 2000
WB-Ha-ras cells [1] = conditions: WB-Ha-ras cell line; Na et al. 2000
connexin 43 = conditions: Na et al. 2000
WB-Ha-ras cells [2] = conditions: WB-Ha-ras cell line; Na et al. 2000; remark: listed apart in the source

Q: Which “protein level of p21^ras by Western blot” value (ras protein (p21^ras)) does the source give for O=C(/C=C/c1ccc(O)c(O)c1)OCCc1ccccc1 [CAPE, phenylethyl ester of caffeic acid] here?
A: decreased

Q: And the “restoration of GJIC” value (WB-Ha-ras cells [1])?
A: restored GJIC

Q: What about the “expression of hyperphosphorylated Cx43” value (connexin 43) of the same compound?
A: restored

Q: What about the “inhibition of AIG” value (WB-Ha-ras cells [2]) of the same compound?
A: inhibited AIG
